The results in this text go back to ChEMBL document CHEMBL2331429, “Purgin II, a resin glycoside ester-type dimer and inhibitor of multidrug efflux pumps from Ipomoea purga” (J Nat Prod, 2013).

For orientation: IC50 means the midpoint of a concentration-inhibition curve. A lower IC50 goes with greater potency in that assay.

Calls of active or inactive are those of the source. The calls are words filed in the database; no cut-off is given here.

Data set [1] concerns MCF7. Briefly: Potentiation of vinblastine-induced cytotoxicity in human MCF7 cells at 25 ug/ml after 72 hrs by SRB assay. Type of data set: functional. (Sulforhodamine B stains cellular protein and so reports cell mass.)
The target in data set [2] is T1, ATP-dependent translocase ABCB1 (Homo sapiens, UniProt P08183). Briefly: Inhibition of p-glycoprotein in human vinblastine-resistant MCF7 cells cultured in vinblastine-free medium assessed as potentiation of vinblastine-induced cytotoxicity at 25 ug/ml after 72 hrs by SRB assay. The note with it: mcf7, 72 h. Type of data set: cell-based.
Data set [3] concerns MCF7. The data set can be described thus: Cytotoxicity against human vinblastine-resistant MCF7 cells after 72 hrs by SRB assay. Type of data set: cell-based. The following applies: MCF7, 72 h.
Data set [4] deals with MCF7. The data set can be described thus: Cytotoxicity against human MCF7 cells after 72 hrs by SRB assay. The data set is classed as cell-based. The following applies: MCF7, 72 h.
The target of data set [5] is T1, ATP-dependent translocase ABCB1. Briefly: Inhibition of p-glycoprotein in human vinblastine-resistant MCF7 cells cultured in medium containing vinblastine assessed as potentiation of vinblastine-induced cytotoxicity at 25 ug/ml after 72 hrs by SRB assay. The data set is classed as cell-based. The following applies: mcf7, 72 h.
The subject of data set [6] is MCF7. The data set can be described thus: Reversible inhibition of p-glycoprotein in human vinblastine-resistant MCF7 cells assessed as increase of rhodamine-123 accumulation at 5 to 25 ug/ml measured up to 50 mins. The data set is classed as cell-based.
Data set [7] concerns the target T1, ATP-dependent translocase ABCB1. Briefly: Inhibition of p-glycoprotein in human vinblastine-resistant MCF7 cells assessed as increase of rhodamine-123 accumulation at 5 to 25 ug/ml measured up to 50 mins. Type of data set: cell-based. The following applies: mcf7, 50 min.
Data set [8] has the same target. The data set can be described thus: Inhibition of p-glycoprotein in human vinblastine-resistant MCF7 cells assessed as increase of rhodamine-123 accumulation at 5 ug/ml measured up to 50 mins. The data set is classed as cell-based. The note with it: mcf7, 50 min.
Data set [9] has the same target. The data set can be described thus: Inhibition of p-glycoprotein in human vinblastine-resistant MCF7 cells cultured in vinblastine-free medium assessed as potentiation of vinblastine-induced cytotoxicity at 5 ug/ml after 72 hrs by SRB assay. Type of data set: cell-based. The following applies: mcf7, 72 h.
Data set [10] has the same target. The data set can be described thus: Inhibition of p-glycoprotein in human vinblastine-resistant MCF7 cells cultured in medium containing vinblastine assessed as potentiation of vinblastine-induced cytotoxicity at 5 ug/ml after 72 hrs by SRB assay. The data set is classed as cell-based. The note with it: mcf7, 72 h.

T1 sequence (P08183 whole entry): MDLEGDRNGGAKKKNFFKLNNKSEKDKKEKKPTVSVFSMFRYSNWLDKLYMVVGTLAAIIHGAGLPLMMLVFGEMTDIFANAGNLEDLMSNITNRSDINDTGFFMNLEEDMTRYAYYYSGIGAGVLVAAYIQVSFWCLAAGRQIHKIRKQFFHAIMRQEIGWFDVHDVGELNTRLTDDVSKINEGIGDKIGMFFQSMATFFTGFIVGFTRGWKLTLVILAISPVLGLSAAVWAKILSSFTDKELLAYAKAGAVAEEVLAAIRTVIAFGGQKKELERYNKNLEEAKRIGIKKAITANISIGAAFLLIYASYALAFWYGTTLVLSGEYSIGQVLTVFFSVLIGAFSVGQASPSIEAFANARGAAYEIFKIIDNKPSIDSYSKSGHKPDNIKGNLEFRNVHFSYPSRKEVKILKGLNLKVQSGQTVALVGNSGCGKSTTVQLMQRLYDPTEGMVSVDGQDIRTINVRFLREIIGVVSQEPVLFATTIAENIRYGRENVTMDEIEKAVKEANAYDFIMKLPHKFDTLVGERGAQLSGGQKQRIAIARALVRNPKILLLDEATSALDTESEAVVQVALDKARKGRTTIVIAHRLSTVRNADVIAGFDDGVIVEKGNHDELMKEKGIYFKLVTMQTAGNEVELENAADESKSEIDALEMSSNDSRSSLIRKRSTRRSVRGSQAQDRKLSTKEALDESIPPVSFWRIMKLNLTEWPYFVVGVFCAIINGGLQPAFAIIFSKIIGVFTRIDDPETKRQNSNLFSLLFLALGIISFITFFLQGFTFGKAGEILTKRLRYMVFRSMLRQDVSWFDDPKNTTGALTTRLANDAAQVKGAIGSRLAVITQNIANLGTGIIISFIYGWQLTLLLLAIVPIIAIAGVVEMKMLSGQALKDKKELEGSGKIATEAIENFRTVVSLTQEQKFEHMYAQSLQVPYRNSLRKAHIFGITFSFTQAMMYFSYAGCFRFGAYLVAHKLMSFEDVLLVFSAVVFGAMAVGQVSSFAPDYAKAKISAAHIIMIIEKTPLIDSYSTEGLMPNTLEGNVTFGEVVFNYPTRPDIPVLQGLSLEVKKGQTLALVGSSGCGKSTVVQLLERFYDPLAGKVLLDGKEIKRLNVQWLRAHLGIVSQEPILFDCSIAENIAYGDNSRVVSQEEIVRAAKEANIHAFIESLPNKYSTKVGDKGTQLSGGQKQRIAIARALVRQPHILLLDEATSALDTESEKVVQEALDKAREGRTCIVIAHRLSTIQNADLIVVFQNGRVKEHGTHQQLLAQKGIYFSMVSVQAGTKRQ

Regarding `CCCCCCCCCC(=O)O[C@H]1[C@H](O[C@@H]2[C@@H](O)[C@@H](O)[C@H](O[C@H]3[C@H](O[C@@H](CCCCC)CCCCCCCCCC(=O)O[C@H]4[C@H](O)[C@@H](O)[C@H](O[C@@H]5[C@@H](O[C@@H]6O[C@@H](C)[C@H](OC(=O)CCCCC)[C@@H](OC(=O)/C=C/c7ccccc7)[C@H]6O)[C@H](C)O[C@@H](O[C@@H]6[C@@H](O)[C@H]7OC(=O)CCCCCCCCC[C@H](CCCCC)O[C@@H]8O[C@H](CO)[C@@H](O)[C@H](O)[C@H]8O[C@@H]7O[C@H]6C)[C@@H]5OC(=O)CCCCCCCCC)O[C@@H]4CO)O[C@H](CO)[C@@H](O)[C@@H]3O)O[C@H]2C)O[C@@H](C)[C@H](O[C@@H]2O[C@@H](C)[C@H](OC(=O)CCCCC)[C@@H](OC(=O)/C=C/c3ccccc3)[C@H]2O)[C@H]1O[C@@H]1O[C@H](CO)[C@@H](O)[C@H](O)[C@H]1O` [PURGIN III], the “fold change (FC)” value was 4.7 with MCF7 [1], 6.5 in data set [2] and 6.4 in data set [5]. In addition, the IC50 with MCF7 [3] and in the data set with MCF7 [4] was > 25 µg/mL each time.

Take `CCCCCCCCCC(=O)O[C@H]1[C@H](O[C@@H]2[C@@H](O)[C@@H](O)[C@H](O[C@H]3[C@H](O[C@@H](CCCCC)CCCCCCCCCC(=O)O[C@H]4[C@H](O)[C@@H](O)[C@H](O[C@@H]5[C@@H](O[C@@H]6O[C@@H](C)[C@H](OC(=O)[C@@H](C)CC)[C@@H](OC(=O)/C=C/c7ccccc7)[C@H]6O)[C@H](C)O[C@@H](O[C@@H]6[C@@H](O)[C@H]7OC(=O)CCCCCCCCC[C@H](CCCCC)O[C@@H]8O[C@H](CO)[C@@H](O)[C@H](O)[C@H]8O[C@@H]7O[C@H]6C)[C@@H]5OC(=O)CCCCCCCCC)O[C@@H]4CO)O[C@H](CO)[C@@H](O)[C@@H]3O)O[C@H]2C)O[C@@H](C)[C@H](O[C@@H]2O[C@@H](C)[C@H](OC(=O)[C@@H](C)CC)[C@@H](OC(=O)/C=C/c3ccccc3)[C@H]2O)[C@H]1O[C@@H]1O[C@H](CO)[C@@H](O)[C@H](O)[C@H]1O` [PURGIN II]: in the data set with MCF7 [6], the inhibition entry is “Active”. In [7], the “inhibition (INH)” value is given as “Active”. Also, the “fold change (FC)” value with MCF7 [1] is given as >73.4; in data set [2], > 2140.6; in data set [5], > 1687.5. Further, the IC50 in the data set on MCF7 [3] and in the data set on MCF7 [4] was > 25 µg/mL each time.

For the compound `CCCCCCCCCCCC(=O)O[C@H]1[C@H](O[C@@H]2[C@@H](O)[C@@H](O)[C@H](O[C@H]3[C@H](O[C@@H](CCCCC)CCCCCCCCCC(=O)O[C@H]4[C@H](O)[C@@H](O)[C@H](O[C@@H]5[C@@H](O[C@@H]6O[C@@H](C)[C@H](OC(=O)[C@@H](C)CC)[C@@H](O)[C@H]6OC(=O)/C=C/c6ccccc6)[C@H](C)O[C@@H](O[C@@H]6[C@@H](O)[C@H]7OC(=O)CCCCCCCCC[C@H](CCCCC)O[C@@H]8O[C@H](C)[C@H](O)[C@H](O)[C@H]8O[C@@H]7O[C@H]6C)[C@@H]5OC(=O)CCCCCCCCCCC)O[C@@H]4CO)O[C@H](C)[C@H](O)[C@@H]3O)O[C@H]2C)O[C@@H](C)[C@H](O[C@@H]2O[C@@H](C)[C@H](OC(=O)[C@@H](C)CC)[C@@H](OC(=O)/C=C/c3ccccc3)[C@H]2O)[C@H]1O[C@@H]1O[C@H](CO)[C@@H](O)[C@H](O)[C@H]1O` [PURGIN I], the “fold change (FC)” value was determined as 2.9 in the data set with MCF7 [1], 3.8 in [2] and 4.7 in [5]. Moreover, the half-inhibitory concentration (IC50) in the data set with MCF7 [3] and in the data set on MCF7 [4] was > 25 µg/mL throughout.

Regarding `CCCCCCCCCC(=O)O[C@H]1[C@H](O[C@@H]2[C@@H](O)[C@H]3OC(=O)CCCCCCCCC[C@H](CCCCC)O[C@@H]4O[C@H](C)[C@H](O)[C@H](O)[C@H]4O[C@@H]3O[C@H]2C)O[C@@H](C)[C@H](O[C@@H]2O[C@@H](C)[C@H](OC(=O)CCCCC)[C@@H](OC(=O)/C=C/c3ccccc3)[C@H]2O)[C@H]1O[C@@H]1O[C@H](CO)[C@@H](O)[C@H](O)[C@H]1O` [PURGINOSIDE II], the “fold change (FC)” value in the data set on MCF7 [1] was found to be 1.4; in data set [2], 1.4; in data set [5] it was 1.2. The IC50 in the data set with MCF7 [3] and in the data set with MCF7 [4] was > 25 µg/mL throughout.

For the compound `CCCCCCCCCC(=O)O[C@H]1[C@H](O[C@@H]2[C@@H](O)[C@H]3OC(=O)CCCCCCCCC[C@H](CCCCC)O[C@@H]4O[C@H](C)[C@H](O)[C@H](O)[C@H]4O[C@@H]3O[C@H]2C)O[C@@H](C)[C@H](O[C@@H]2O[C@@H](C)[C@H](OC(=O)CCCCC)[C@@H](O)[C@H]2O)[C@H]1O[C@@H]1O[C@H](CO)[C@@H](O)[C@H](O)[C@H]1O` [PURGINOSIDE IV], the entries for the “fold change (FC)” value (in the data set with MCF7 [1]; in data set [2]; in data set [5]) were 2.5, 3 and 3.3, respectively. For the same compound, the concentration for half-maximal inhibition (IC50) with MCF7 [3] and with MCF7 [4] was > 25 µg/mL each time.

Take `CCCCCCCCCC(=O)O[C@H]1[C@H](O[C@@H]2[C@@H](O)[C@H]3OC(=O)CCCCCCCCC[C@H](CCCCC)O[C@@H]4O[C@H](C)[C@H](O)[C@H](O)[C@H]4O[C@@H]3O[C@H]2C)O[C@@H](C)[C@H](O[C@@H]2O[C@@H](C)[C@H](OC(=O)[C@@H](C)CC)[C@@H](O)[C@H]2OC(=O)/C=C/c2ccccc2)[C@H]1O[C@@H]1O[C@H](CO)[C@@H](O)[C@H](O)[C@H]1O` [PURGINOSIDE I]: the “fold change (FC)” value was 0.8 in the data set with MCF7 [1], 2.9 in data set [2] and 2.8 in data set [5]. In addition, the half-inhibitory concentration (IC50) with MCF7 [3] and in the data set with MCF7 [4] was > 25 µg/mL each time.

Take `COC(=O)[C@H]1[C@H]2C[C@@H]3c4[nH]c5cc(OC)ccc5c4CCN3C[C@H]2C[C@@H](OC(=O)c2cc(OC)c(OC)c(OC)c2)[C@@H]1OC` [RESERPINE]: the “inhibition (INH)” value in data set [8] is given as “Active”. The results for the “fold change (FC)” value in [9] and in [10] were 4.4 and 29.2, respectively.
